Experimental data reported in ChEMBL document CHEMBL4334495, “Design and Biological Evaluation of m-Xylene Thioether-Stapled Short Helical Peptides Targeting the HIV-1 gp41 Hexameric Coiled-Coil Fusion Complex” (J Med Chem, 2019).
The source made the active and inactive calls. No cut-off for these calls is given here. Starred links: 1 amine or outer side, 2 acyl side, 3 side chain; linkers in the order of their positions; H or OH if unused. Positions of bridges follow the written chain, without caps; N, C: chain ends. Non-standard residues stand in square brackets, D forms with d. Residues, ends and D or L forms follow the SMILES beside them. ξ: configuration not given here. mXylylene = c1cc(C[*:1])cc(C[*:2])c1; ξhCys = NC(CCS)C(=O)O

Columns and labels:
[1] = tested on: Human immunodeficiency virus 1; assay: Antiviral activity against R5 tropic HIV-1 subtype-B Bal infected in human MT2 cells or CEMx174 5.25 M7 cells assessed as reduction in p24 Gag protein production at 6:1 ratio of compound to HP23 measured at 4 days post-infection by ELISA; assay type: functional, cell-based, HIV-1 group M; conditions: Human immunodeficiency virus 1, Bal, 96 h
[2] = tested on: Human immunodeficiency virus 1; assay: Synergistic antiviral activity against X4 tropic HIV-1 subtype-B 3B infected in human MT2 cells or CEMx174 5.25 M7 cells assessed as reduction in p24 Gag protein production by measuring combination index at 6:1 compound to HP23 ratio measured at 4 days post-infection by ELISA; assay type: functional, HIV-1 group M
[3] = target: Envelope glycoprotein gp160 (Human immunodeficiency virus 1) (UniProt Q6QLK5); assay: Binding affinity to HIV1 GP41 using GP41 NHR derived N36 peptide assessed as melting temperature at 10 uM incubated for 30 mins by CD spectroscopy
Chain of Envelope glycoprotein gp160 (Human immunodeficiency virus 1) (Q6QLK5 1-814): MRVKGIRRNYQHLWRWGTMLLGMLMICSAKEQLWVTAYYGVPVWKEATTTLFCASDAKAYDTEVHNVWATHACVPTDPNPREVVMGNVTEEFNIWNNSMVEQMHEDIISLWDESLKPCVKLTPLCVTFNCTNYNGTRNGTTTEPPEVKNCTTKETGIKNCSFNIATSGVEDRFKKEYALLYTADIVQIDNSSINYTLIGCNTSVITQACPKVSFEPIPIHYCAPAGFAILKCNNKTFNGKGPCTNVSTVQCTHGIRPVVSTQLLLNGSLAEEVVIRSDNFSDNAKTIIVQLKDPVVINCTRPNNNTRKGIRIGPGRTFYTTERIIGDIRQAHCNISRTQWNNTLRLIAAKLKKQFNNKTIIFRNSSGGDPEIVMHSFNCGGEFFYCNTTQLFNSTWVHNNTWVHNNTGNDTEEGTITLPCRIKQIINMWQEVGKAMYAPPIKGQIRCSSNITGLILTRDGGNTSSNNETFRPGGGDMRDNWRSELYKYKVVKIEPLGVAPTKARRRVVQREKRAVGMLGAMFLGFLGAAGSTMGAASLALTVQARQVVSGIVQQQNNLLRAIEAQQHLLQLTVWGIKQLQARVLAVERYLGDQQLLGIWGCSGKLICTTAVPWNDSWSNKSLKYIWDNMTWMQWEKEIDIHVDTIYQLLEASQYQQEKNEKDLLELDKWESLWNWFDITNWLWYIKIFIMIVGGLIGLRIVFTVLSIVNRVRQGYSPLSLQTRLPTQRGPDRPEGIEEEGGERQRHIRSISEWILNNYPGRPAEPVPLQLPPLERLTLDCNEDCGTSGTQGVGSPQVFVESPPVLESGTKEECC

[4] = tested on: Human immunodeficiency virus 1; assay: Antiviral activity against T20 resistant HIV1 NL4-3 harboring with V38E/N42S mutant infected in human MT2 cells or CEMx174 5.25 M7 cells assessed as reduction in p24 Gag protein production measured at 4 days post-infection by ELISA; assay type: functional, organism-based
[5] = tested on: Human immunodeficiency virus 1; assay: (§1) Antiviral activity against T20 resistant HIV1 NL4-3 harboring with V38E/N42T mutant infected in human MT2 cells or CEMx174 5.25 M7 cells assessed as reduction in p24 Gag protein production measured at 4 days post-infection by ELISA; assay type: functional, organism-based
[6] = tested on: Human immunodeficiency virus 1; assay: Antiviral activity against X4 tropic HIV-1 subtype-B 3B infected in human MT2 cells or CEMx174 5.25 M7 cells assessed as reduction in p24 Gag protein production measured at 4 days post-infection by ELISA; assay type: functional, cell-based, HIV-1 group M; conditions: Human immunodeficiency virus 1, 3B, 96 h
[7] = tested on: Human immunodeficiency virus 1; assay: Antiviral activity against X4 tropic HIV-1 subtype-B 3B infected in human MT2 cells or CEMx174 5.25 M7 cells assessed as reduction in p24 Gag protein production at 12:1 compound to HP23 ratio measured at 4 days post-infection by ELISA; assay type: functional, cell-based, HIV-1 group M; conditions: Human immunodeficiency virus 1, 3B, 96 h
[8] = tested on: Human immunodeficiency virus 1; assay: Antiviral activity against HIV1 NL4-3 infected in human MT2 cells or CEMx174 5.25 M7 cells assessed as reduction in p24 Gag protein production measured at 4 days post infection by ELISA; assay type: functional, organism-based; conditions: Human immunodeficiency virus 1, NL4-3, 96 h
[9] = tested on: Human immunodeficiency virus 1; assay: as §1, with “Synergistic antiviral” for “Antiviral”, “production by measuring combination index at 300:1 compound to HP23 ratio” for “production”; assay type: functional
[10] = target: Envelope glycoprotein gp160 (Human immunodeficiency virus 1) (UniProt Q6QLK5); assay: Synergistic inhibition of HIV1 gp41-induced cell-cell fusion between viral envelope expressing human HL2/3 cells to CD4/CCR5 receptor expressing TZM-bl cells assessed as combination index at 1:1 compound to HP23 ratio incubated for 6 hrs by luciferase reporter gene assay
[11] = tested on: Human immunodeficiency virus 1; assay: (§2) Ratio of EC50 for antiviral activity against X4 tropic HIV-1 subtype-B 3B infected in human MT2 cells or CEMx174 5.25 M7 cells in absence of HP23 to EC50 for antiviral activity against X4 tropic HIV-1 subtype-B 3B infected in human MT2 cells or CEMx174 5.25 M7 cells at 12:1 compound to HP23 ratio; assay type: functional, HIV-1 group M
[12] = tested on: Human immunodeficiency virus 1; assay: Antiviral activity against T2635 resistant HIV1 LAI harboring Q66R mutant infected in human MT2 cells or CEMx174 5.25 M7 cells assessed as reduction in p24 Gag protein production measured at 4 days post-infection by ELISA; assay type: functional, organism-based, M:B_Lai
[13] = tested on: Human immunodeficiency virus 1; assay: Antiviral activity against T2635 resistant HIV1 LAI harboring Q66R mutant infected in human MT2 cells or CEMx174 5.25 M7 cells assessed as reduction in p24 Gag protein production at 12.5:1 ratio of compound to HP23 measured at 4 days post infection by ELISA; assay type: functional, organism-based, M:B_Lai
[14] = tested on: Human immunodeficiency virus 1; assay: Antiviral activity against R5 tropic HIV-1 subtype-B Bal infected in human MT2 cells or CEMx174 5.25 M7 cells assessed as reduction in p24 Gag protein production measured at 4 days post-infection by ELISA; assay type: functional, cell-based, HIV-1 group M; conditions: Human immunodeficiency virus 1, Bal, 96 h
[15] = target: Envelope glycoprotein gp160 (Human immunodeficiency virus 1) (UniProt Q6QLK5); assay: Binding affinity to HIV1 GP41 using GP41 NHR derived N36 peptide at 500 uM incubated for 30 mins by size exclusion HPLC analysis
[16] = tested on: Human immunodeficiency virus 1; assay: Antiviral activity against R5 tropic HIV-1 subtype-B Bal infected in human MT2 cells or CEMx174 5.25 M7 cells assessed as reduction in p24 Gag protein production at 3:1 ratio of hCS6ERE to compound measured at 4 days post-infection by ELISA; assay type: functional, cell-based, HIV-1 group M; conditions: Human immunodeficiency virus 1, Bal, 96 h
[17] = tested on: Human immunodeficiency virus 1; assay: Antiviral activity against R5 tropic HIV-1 subtype-B Bal infected in human MT2 cells or CEMx174 5.25 M7 cells assessed as reduction in p24 Gag protein production at 12:1 ratio of hCS6ERE to compound measured at 4 days post-infection by ELISA; assay type: functional, cell-based, HIV-1 group M; conditions: Human immunodeficiency virus 1, Bal, 96 h
[18] = tested on: Human immunodeficiency virus 1; assay: Antiviral activity against T20 resistant HIV1 NL4-3 harboring with V38E/N42T mutant infected in human MT2 cells or CEMx174 5.25 M7 cells assessed as reduction in p24 Gag protein production at 150:1 hCS6ERE to compound ratio measured at 4 days post-infection by ELISA; assay type: functional, organism-based
[19] = tested on: Human immunodeficiency virus 1; assay: Antiviral activity against R5 tropic HIV-1 subtype-B Bal infected in human MT2 cells or CEMx174 5.25 M7 cells assessed as reduction in p24 Gag protein production at 6:1 ratio of hCS6ERE to compound measured at 4 days post-infection by ELISA; assay type: functional, cell-based, HIV-1 group M; conditions: Human immunodeficiency virus 1, Bal, 96 h
[20] = tested on: Human immunodeficiency virus 1; assay: as §2, with “T20 resistant HIV1 NL4-3 harboring with V38E/N42S mutant” for “X4 tropic HIV-1 subtype-B 3B”, “hCS6ERE” for “HP23”, “3500:1 hCS6ERE to” for “12:1”, “compound” for “compound to HP23”; assay type: functional
[21] = tested on: Human immunodeficiency virus 1; assay: Ratio of EC50 for antiviral activity against T2635 resistant HIV1 LAI harboring Q66R mutant infected in human MT2 cells or CEMx174 5.25 M7 cells in absence of hCS6ERE to antiviral activity against T2635 resistant HIV1 LAI harboring Q66R mutant infected in human MT2 cells or CEMx174 5.25 M7 cells at 25:1 ratio of hCS6ERE to compound; assay type: functional, M:B_Lai
[22] = tested on: Human immunodeficiency virus 1; assay: Antiviral activity against T2635 resistant HIV1 LAI harboring Q66R mutant infected in human MT2 cells or CEMx174 5.25 M7 cells assessed as reduction in p24 Gag protein production at 25:1 ratio of hCS6ERE to compound measured at 4 days post infection by ELISA; assay type: functional, organism-based, M:B_Lai
[23] = tested on: Human immunodeficiency virus 1; assay: Ratio of EC50 for antiviral activity against HIV1 NL4-3 infected in human MT2 cells or CEMx174 5.25 M7 cells in absence of hCS6ERE to EC50 for antiviral activity against HIV1 NL4-3 infected in human MT2 cells or CEMx174 5.25 M7 cells at 5:1 hCS6ERE to compound ratio; assay type: functional
[24] = tested on: Human immunodeficiency virus 1; assay: Antiviral activity against T20 resistant HIV1 NL4-3 harboring with V38E/N42T mutant infected in human MT2 cells or CEMx174 5.25 M7 cells assessed as reduction in p24 Gag protein production at 300:1 hCS6ERE to compound ratio measured at 4 days post-infection by ELISA; assay type: functional, organism-based

CC[C@H](C)[C@H](NC(C)=O)C(=O)N[C@@H](CCC(=O)O)C(=O)N[C@@H](CCC(=O)O)C(=O)N[C@@H](CC(C)C)C(=O)N[C@H](C(=O)NC1CCSCc2cccc(c2)CSCCC(C(=O)N[C@@H](CCC(N)=O)C(=O)N[C@@H](CCC(N)=O)C(=O)N[C@@H](CCCNC(=N)N)C(=O)N[C@@H](CCCCN)C(=O)N[C@@H](CC(N)=O)C(=O)N[C@@H](CCC(=O)O)C(=O)N[C@@H](CCC(=O)O)C(=O)N[C@@H](C)C(=O)N[C@@H](CC(C)C)C(=O)N[C@@H](CCCNC(=N)N)C(=O)N[C@@H](CCC(=O)O)C(=O)N[C@@H](CC(C)C)C(N)=O)NC(=O)[C@H](CCC(N)=O)NC(=O)[C@H](C)NC(=O)[C@H](C)NC1=O)[C@@H](C)CC (stereo not given in full) (Ac-IEELI[ξhCys]AAQ[ξhCys]QQRKNEEALREL-NH2; linker 6-10 via mXylylene)
EC50 [1]: 6 nM
CI [2]: 0.8
Tm [3]: 57.6 °C
EC50 [4]: 6900 nM
EC50 [5]: 1010 nM
EC50 [6]: 11 to 27.1 nM
EC50 [7]: 11.1 nM
EC50 [8]: 22.1 nM
CI [9]: 0.8
CI [10]: 0.9
Ratio EC50 [11]: 2.4
EC50 [12]: 86.4 nM
EC50 [13]: 22.9 nM
EC50 [14]: 15.2 to 15.4 nM
Activity [15]: Active

H-EMTWEEWEKKIEEYTKKIEEILK-OH
EC50 [16]: 1.4 nM
EC50 [17]: 0.5 nM
EC50 [18]: 2.2 nM
EC50 [19]: 1 nM
EC50 [4]: 1.4 nM
EC50 [5]: 4.1 nM
Ratio EC50 [20]: 2.3
EC50 [6]: 2.5 nM
EC50 [8]: 3.4 nM
Ratio EC50 [21]: 3.2
EC50 [22]: 1.5 nM
Ratio EC50 [23]: 3.8
EC50 [12]: 4.8 nM
EC50 [24]: 1.4 nM
EC50 [14]: 2.6 nM
